The assay has as its target human-cGAS (h-cGAS) (Homo sapiens, UniProt Q8N884). The assay can be described thus: hcGAS Kinase-Glo Assay. The assay is classed as biochemical. Conditions: 40 nM h-cGAS, 100 μM ATP, 100 μM GTP, 25 nM dsDNA, 3 h incubation, read-out: hcGAS potency IC50. The protocol:
In some embodiments, the compounds of the instant disclosure may be tested for their human-cGAS (h-cGAS) inhibition activity using the methodology reported in Lama et al., “Development of human cGAS-specific small molecule inhibitors for repression of double stranded DNA (dsDNA)-triggered interferon expression”, Nature Communications 10, Article number: 2261 (2019), incorporated herein by reference. hcGAS Kinase-Glo Assay Compounds were tested for their human-cGAS (h-cGAS) inhibition activity using the methodology reported in Lama et al., “Development of human cGAS-specific small molecule inhibitors for repression of double stranded DNA (dsDNA)-triggered interferon expression”, Nature Communications 10. Article number: 2261 (2019), which is herein incorporated by reference in its entirety, with slight changes to some conditions as shown in Table B. The results of the assays, expressed in IC50 ranges are reported in Table C with the following designations: A represents an IC50 value <0.1 μM; B represents an IC50 value ≥0.1 μM and <0.5 μM; C represents an IC50 value ≥0.5 μM and <1.0 μM; D represents an IC50 value ≥1.0 μM. [table]
Chain of human-cGAS (h-cGAS) (Q8N884 whole entry): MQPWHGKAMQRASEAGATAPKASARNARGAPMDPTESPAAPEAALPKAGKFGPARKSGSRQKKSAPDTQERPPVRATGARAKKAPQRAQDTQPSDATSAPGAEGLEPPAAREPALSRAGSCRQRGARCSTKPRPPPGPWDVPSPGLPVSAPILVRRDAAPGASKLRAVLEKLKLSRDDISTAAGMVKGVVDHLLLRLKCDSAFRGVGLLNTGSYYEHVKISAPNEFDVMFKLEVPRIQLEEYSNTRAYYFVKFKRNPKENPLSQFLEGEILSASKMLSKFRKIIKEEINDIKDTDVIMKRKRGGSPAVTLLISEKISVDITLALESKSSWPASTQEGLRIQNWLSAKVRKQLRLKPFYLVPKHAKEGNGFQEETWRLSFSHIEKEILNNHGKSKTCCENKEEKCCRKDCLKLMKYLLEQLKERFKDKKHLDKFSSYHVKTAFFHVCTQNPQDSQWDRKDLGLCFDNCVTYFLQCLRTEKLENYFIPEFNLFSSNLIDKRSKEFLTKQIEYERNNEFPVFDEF
With `CSc1nnc(NC(=O)c2nnc(N3CCCCC3)o2)s1` [Compound 108, N-(5-(methylthio)-1,3,4-thiadiazol-2-yl)-5-(piperidin-1-yl)-1,3,4-oxadiazole-2-carboxamide], the IC50 (as a rule, the midpoint of a concentration-inhibition curve) was in the range of 500 to 1000 nM. Regarding `CSc1nnc(NC(=O)c2cn(CCC(C)(C)C)nn2)s1` [Compound 198, 1-(3,3-dimethylbutyl)-N-(5-(methylthio)-1,3,4-thiadiazol-2-yl)-1H-1,2,3-triazole-4-carboxamide], the IC50 was at least 1000 nM. For the compound `CSc1nnc(NC(=O)c2nnc(N3CCC(C(=O)O)C3)o2)s1` (stereo not drawn) [Compound 112, 1-(5-{[5-(methylsulfanyl)-1,3,4-thiadiazol-2-yl]carbamoyl}-1,3,4-oxadiazol-2-yl)pyrrolidine-3-carboxylic acid], the IC50 is 100 to 500 nM. For `CSc1nnc(NC(=O)c2nnc3n2CCN(C(=O)OC(C)(C)C)C3)s1` [Compound 98, tert-butyl 3-{[5-(methylsulfanyl)-1,3,4-thiadiazol-2-yl]carbamoyl}-5H,6H,8H-[1,2,4]triazolo[4,3-a]pyrazine-7-carboxylate] the value was at least 1000 nM. Take `O=C(Nc1nnc(-c2cccc(O)c2)s1)c1onc2ccccc12` [Compound 30, N-(5-(3-hydroxyphenyl)-1,3,4-thiadiazol-2-yl)benzo[c]isoxazole-3-carboxamide]: the IC50 is at least 1000 nM.

Take `Cc1cnc(-c2cc(C(=O)Nc3nnc(-c4ccccc4Cl)s3)on2)nc1` [Compound 158, N-(5-(2-Chlorophenyl)-1,3,4-thiadiazol-2-yl)-3-(5-methylpyrimidin-2-yl)isoxazole-5-carboxamide]: the IC50 lay within 100 to 500 nM. For `O=C(Nc1nnc(-c2ccccc2Cl)s1)c1ccnc(=O)[nH]1` [Compound 62, N-(5-(2-chlorophenyl)-1,3,4-thiadiazol-2-yl)-2-oxo-2,3-dihydropyrimidine-4-carboxamide] the value was at least 1000 nM. On to `COc1cccc2c(C(=O)Nc3nnc(SC)s3)onc12` [Compound 230, 7-methoxy-N-[5-(methylsulfanyl)-1,3,4-thiadiazol-2-yl]-2,1-benzoxazole-3-carboxamide], for which the IC50 lay in the range of 100 to 500 nM. Take `CSc1nnc(NC(=O)c2cc(-c3ncccn3)no2)s1` [Compound 152, N-(5-(Methylthio)-1,3,4-thiadiazol-2-yl)-3-(pyrimidin-2-yl)isoxazole-5-carboxamide]: the IC50 was in the range of 100 to 500 nM. Regarding `CSc1nnc(NC(=O)c2cc(C3CCCCC3)no2)s1` [Compound 84, 3-cyclohexyl-N-(5-(methylthio)-1,3,4-thiadiazol-2-yl)isoxazole-5-carboxamide], the IC50 lay within 100 to 500 nM.

Regarding `CSc1nnc(NC(=O)c2nnc(N3CCCC3c3ccccc3)o2)s1` (stereo not drawn) [Compound 123, N-(5-(methylthio)-1,3,4-thiadiazol-2-yl)-5-(2-phenylpyrrolidin-1-yl)-1.3,4-oxadiazole-2-carboxamide], the IC50 is 100 to 500 nM. For `CSc1nnc(NC(=O)c2ccc(-c3ccccc3)c(=O)o2)s1` [Compound 225, N-[5-(methylsulfanyl)-1,3,4-thiadiazol-2-yl]-6-oxo-5-phenylpyran-2-carboxamide], the IC50 was at least 1000 nM.

Turning to `CSc1nnc(NC(=O)c2onc3ccc(CN4CC[C@@H](O)[C@H](O)C4)cc23)s1` (racemic) [rac-183, 5-((3,4-rac-trans-dihydroxypiperidin-1-yl)methyl)-N-(5-(methylthio)-1,3,4-thiadiazol-2-yl)benzo[c]isoxazole-3-carboxamide], the IC50 was at least 1000 nM.

`CSc1nnc(NC(=O)c2nnc(N3CCCC(C(=O)O)C3)o2)s1` (stereo not drawn) [Compound 110, 1-(5-{[5-(methylsulfanyl)-1,3,4-thiadiazol-2-yl]carbamoyl}-1,3,4-oxadiazol-2-yl)piperidine-3-carboxylic acid]: the IC50 lay within 500 to 1000 nM. Consider `CSc1nnc(NC(=O)c2onc3ccc(Cc4ccc5c(c4)OCO5)cc23)s1` [Compound 185, 5-(Benzo[d][1,3]dioxol-5-ylmethyl)-N-(5-(methylthio)-1,3,4-thiadiazol-2-yl)benzo[c]isoxazole-3-carboxamide], for which the IC50 was at least 1000 nM.

In the case of `Cn1cc(-c2cc(C(=O)Nc3nnc(-c4ccccc4Cl)s3)on2)cn1` [Compound 52, N-(5-(2-chlorophenyl)-1,3,4-thiadiazol-2-yl)-3-(1-methyl-1H-pyrazol-4-yl)isoxazole-5-carboxamide], the IC50 lay in the range of 100 to 500 nM. In the case of `COCCNC(=O)c1cc(C(=O)Nc2nnc(-c3ccccc3Cl)s2)on1` [Compound 88, N5-(5-(2-chlorophenyl)-1,3,4-thiadiazol-2-yl)-N3-(2-methoxyethyl)isoxazole-3,5-dicarboxamide], the IC50 fell in the range of 500 to 1000 nM. As to `CSc1nnc(NC(=O)c2nnc(N3CCCC(C)(C)C3)o2)s1` [Compound 119, 5-(3,3-dimethylpiperidin-1-yl)-N-(5-(methylthio)-1,3,4-thiadiazol-2-yl)-1,3,4-oxadiazole-2-carboxamide], the half-maximal inhibitory concentration (IC50) lay in the range of 500 to 1000 nM. With `CSc1nnc(NC(=O)c2onc3cc(C(=O)N(C)C)ccc23)s1` [Compound 192, N^6,N^6-dimethyl-N^3-(5-(methylthio)-1,3,4-thiadiazol-2-yl)benzo[c]isoxazole-3,6-dicarboxamide], the IC50 is at least 1000 nM.

Take `CSc1nnc(NC(=O)c2cc(C3CCC3)no2)s1` [Compound 86, 3-cyclobutyl-N-(5-(methylthio)-1,3,4-thiadiazol-2-yl)isoxazole-5-carboxamide]: the IC50 was in the range of 500 to 1000 nM. On to `CSc1nnc(NC(=O)c2cc(-c3ccccc3F)cc(=O)o2)s1` [Compound 237, 4-(2-fluorophenyl)-N-(5-methylsulfanyl-1,3,4-thiadiazol-2-yl)-6-oxo-pyran-2-carboxamide], for which the IC50 lay in the range of 100 to 500 nM. Turning to `CONC(=O)c1cc(C(=O)Nc2nnc(-c3ccccc3Cl)s2)on1` [Compound 91, N5-(5-(2-chlorophenyl)-1,3,4-thiadiazol-2-yl)-N3-methoxyisoxazole-3,5-dicarboxamide], the IC50 was under 100 nM. `CSc1nnc(NC(=O)c2onc3c2CCCC3)s1` [Compound 67, N-(5-(methylthio)-1,3,4-thiadiazol-2-yl)-4,5,6,7-tetrahydrobenzo[c]isoxazole-3-carboxamide]: the IC50 fell in the range of 500 to 1000 nM. On to `CSc1nnc(NC(=O)c2noc(N3CCCC3c3ccccc3)n2)s1` (stereo not drawn) [Compound 99, N-(5-(methylthio)-1,3,4-thiadiazol-2-yl)-5-(2-phenylpyrrolidin-1-yl)-1,2,4-oxadiazole-3-carboxamide], for which the IC50 was at least 1000 nM.

As to `O=C(Nc1nnc(-c2ccccc2Cl)s1)c1c[nH]nn1` [Compound 59, N-(5-(2-chlorophenyl)-1,3,4-thiadiazol-2-yl)-1H-1,2,3-triazole-4-carboxamide], the IC50 is 500 to 1000 nM. For `O=C(Nc1nnc(-c2cccc(Cl)c2Cl)s1)c1cc(O)no1` [Compound 57, N-(5-(2,3-dichlorophenyl)-1,3,4-thiadiazol-2-yl)-3-hydroxyisoxazole-5-carboxamide], the IC50 was under 100 nM. On to `O=C(NO)c1cc(C(=O)Nc2nnc(-c3ccccc3Cl)s2)on1` [Compound 90, N5-(5-(2-chlorophenyl)-1,3,4-thiadiazol-2-yl)-N3-hydroxyisoxazole-3,5-dicarboxamide], for which the IC50 was 100 to 500 nM. Turning to `CSc1nnc(NC(=O)c2nnn(-c3ccccc3F)n2)s1` [Compound 138, 2-(2-fluorophenyl)-N-[5-(methylsulfanyl)-1,3,4-thiadiazol-2-yl]-1,2,3,4-tetrazole-5-carboxamide], the IC50 fell in the range of 500 to 1000 nM. Take `COc1ccc(Cc2ccc3noc(C(=O)Nc4nnc(SC)s4)c3c2)cc1O` [Compound 187, 5-(3-hydroxy-4-methoxybenzyl)-N-(5-(methylthio)-1,3,4-thiadiazol-2-yl)benzo[c]isoxazole-3-carboxamide]: the IC50 is at least 1000 nM. Consider `O=C(Nc1nnc(-c2ccccn2)s1)c1onc2ccccc12` [Compound 21, N-(5-(pyridin-2-yl)-1,3,4-thiadiazol-2-yl)benzo[c]isoxazole-3-carboxamide], for which the IC50 lay within 500 to 1000 nM.

With `CSc1nnc(NC(=O)c2onc3ccc(Cc4ccc(O)cc4)cc23)s1` [Compound 188, 5-(4-hydroxybenzyl)-N-(5-(methylthio)-1,3,4-thiadiazol-2-yl)benzo[c]isoxazole-3-carboxamide], the IC50 lay in the range of 500 to 1000 nM. For `COc1cccc2c1CCc1c-2noc1C(=O)Nc1nnc(SC)s1` [Compound 172, 6-Methoxy-N-(5-(methylthio)-1,3,4-thiadiazol-2-yl)-4,5-dihydronaphtho[1,2-c]isoxazole-3-carboxamide], the IC50 was at least 1000 nM. With `O=C(Nc1nnc(-c2ccccc2C(F)F)s1)c1onc2ccccc12` [Compound 147, N-(5-(2-(difluoromethyl)phenyl)-1,3,4-thiadiazol-2-yl)benzo[c]isoxazole-3-carboxamide], the IC50 was in the range of 500 to 1000 nM. As for `CSc1nnc(NC(=O)c2onc3ccc(S(=O)(=O)c4ccccc4)cc23)s1` [Compound 164, N-(5-(methylthio)-1,3,4-thiadiazol-2-yl)-5-(phenylsulfonyl)benzo[c]isoxazole-3 carboxamide], the IC50 fell in the range of 500 to 1000 nM. Consider `CSc1nnc(NC(=O)c2cc(-c3ccccc3Cl)cc(=O)o2)s1` [Compound 251, 4-(2-chlorophenyl)-N-(5-methylsulfanyl-1,3,4-thiadiazol-2-yl)-6-oxo-pyran-2-carboxamide], for which the IC50 fell in the range of 100 to 500 nM. For `NC(=O)c1cc(C(=O)Nc2nnc(-c3ccccc3Cl)s2)on1` [Compound 32, N5-(5-(2-chlorophenyl)-1,3,4-thiadiazol-2-yl)isoxazole-3,5-dicarboxamide], the IC50 lay in the range of 100 to 500 nM.

The values above are taken from patent US20250002487A1, “HETEROCYCLIC COMPOUNDS AND USES THEREOF” (Ventus Therapeutics U.S., Inc., priority 2021, published 2025).
